# Where a name gives a salt, the structure may show the parent alone.
# System: TNFα
# Test: LPS Stimulated Whole Blood Measuring TNFα Levels Assay
# Format: cell-based
# Conditions: 24 h, LPS 200 ng/ml, immunoassay, read-out: pIC50, TNFα levels in LPS stimulated whole blood (converted)
# Protocol: LPS Stimulated Whole Blood Measuring TNFα Levels Assay
# (§1) Activation of monocytic cells by agonists of toll-like receptors such as bacterial lipopolysaccharide (LPS) results in production of key inflammatory mediators including TNFα. Such pathways are widely considered to be central to the pathophysiology of a range of auto-immune and inflammatory disorders.
# Compounds to be tested are diluted to give a range of appropriate concentrations and 1 ul of the dilution stocks is added to wells of a 96 plate. Following addition of whole blood (130 ul) the plates are incubated at 37 degrees (5% CO2) for 30 min before the addition of 10 ul of 2.8 ug/ml lipopolysaccharides (LPS), diluted in complete RPMI 1640 (final concentration=200 ng/ml), to give a total volume of 140 ul per well. After further incubation for 24 hours at 37 degrees, 140 ul of PBS are added to each well. The plates are sealed, shaken for 10 minutes and then centrifuged (2500 rpm×10 min). 100 ul of the supernatant are removed and TNFα levels assayed by immunoassay (typically by MesoScale Discovery technology) either immediately or following storage at −20 degrees. Dose response curves for each compound was generated from the data and an IC50 value was calculated.
row,IC50,SMILES
1,≤ 6.31 µM,"CC(=O)N1c2ccc(-c3cnn(CCN4CCC(N)CC4)c3)cc2[C@@H](NC(=O)OC(C)C)C[C@H]1C (racemic) [Example 39, 1-methylethyl((cis)-1-acetyl-6-{1-[2-(4-amino-1-piperidinyl)ethyl]-1H-pyrazol-4-yl}-2-methyl-1,2,3,4-tetrahydro-4-quinolinyl)carbamate dihydrochloride]"
2,≤ 6.31 µM,"CC(=O)N1c2ccc(-c3ccc(CN4CCCCC4)o3)cc2[C@@H](NC(=O)OC(C)C)C[C@H]1C (racemic) [Example 22, 1-methylethyl {(cis)-1-acetyl-2-methyl-6-[5-(1-piperidinylmethyl)-2-furanyl]-1,2,3,4-tetrahydro-4-quinolinyl}carbamate (formic acid salt)]"
3,≤ 6.31 µM,"CC(=O)N1c2ccc(-c3cnc(N4CCOCC4)nc3)cc2[C@@H](NC(=O)OC(C)C)C[C@H]1C (racemic) [Example 51, 1-methylethyl {(cis)-1-acetyl-2-methyl-6-[2-(4-morpholinyl)-5-pyrimidinyl]-1,2,3,4-tetrahydro-4-quinolinyl}carbamate hydrochloride]"
4,≤ 6.31 µM,"CC(=O)N1c2ccc(-c3ncc(CN4CCCCC4)s3)cc2[C@@H](NC(=O)OC(C)C)C[C@H]1C (racemic) [Example 52, 1-methylethyl {(cis)-1-acetyl-2-methyl-6-[5-(1-piperidinylmethyl)-1,3-thiazol-2-yl]-1,2,3,4-tetrahydro-4-quinolinyl}carbamate hydrochloride]"
5,≤ 6.31 µM,"CC(=O)N1c2ccc(-c3ccn[nH]3)cc2[C@@H](NC(=O)OC(C)C)C[C@H]1C (racemic) [Example 31, 1-methylethyl[(cis)-1-acetyl-2-methyl-6-(1H-pyrazol-5-yl)-1,2,3,4-tetrahydro-4-quinolinyl]carbamate]"
6,≤ 6.31 µM,"CC(=O)N1c2ccc(-c3ccc(CN4CCCCC4)cc3)cc2[C@@H](NC(=O)OC(C)(C)C)C[C@H]1C (racemic) [Example 17, 1,1-dimethylethyl {(cis)-1-acetyl-2-methyl-6-[4-(1-piperidinylmethyl)phenyl]-1,2,3,4-tetrahydro-4-quinolinyl}carbamate]"
7,≤ 6.31 µM,"CNCc1cccc(-c2ccc3c(c2)[C@H](NC(=O)OC(C)C)C[C@H](C)N3C(C)=O)c1 [Example 111, 1-Methylethyl((2S,4R)-1-acetyl-2-methyl-6-{3-[(methylamino)methyl]phenyl}-1,2,3,4-tetrahydro-4-quinolinyl)carbamate hydrochloride]"
8,≤ 6.31 µM,"CC(=O)N1c2ccc(-c3csc(CN4CCCCC4)n3)cc2[C@@H](NC(=O)OC(C)C)C[C@H]1C (racemic) [Example 41, 1-methylethyl {(cis)-1-acetyl-2-methyl-6-[2-(1-piperidinylmethyl)-1,3-thiazol-4-yl]-1,2,3,4-tetrahydro-4-quinolinyl}carbamate]"
9,≤ 6.31 µM,"CC(=O)N1c2ccc(-c3ccc(CN4CCCC4)cc3)cc2[C@H](NC(=O)OC(C)C)C[C@@H]1C (relative stereo) [Example 30, 1-methylethyl {(cis)-1-acetyl-2-methyl-6-[4-(1-pyrrolidinylmethyl)phenyl]-1,2,3,4-tetrahydro-4-quinolinyl}carbamate hydrochloride]"
10,≤ 6.31 µM,"CC(=O)N1c2ccc(-c3ccc(N(C)C)nc3)cc2[C@@H](NC(=O)OC(C)C)C[C@H]1C (racemic) [Example 48, 1-methylethyl {(cis)-1-acetyl-6-[6-(dimethylamino)-3-pyridinyl]-2-methyl-1,2,3,4-tetrahydro-4-quinolinyl}carbamate hydrochloride]"
11,≤ 6.31 µM,"CC(=O)N1c2ccc(-c3ccc(CN4CCCCC4)cc3)cc2[C@H](N(C)C(=O)OC(C)C)C[C@@H]1C (racemic) [Example 42, formic acid-1-methylethyl {(cis)-1-acetyl-2-methyl-6-[4-(1-piperidinylmethyl)phenyl]-1,2,3,4-tetrahydro-4-quinolinyl}methylcarbamate (1:1)]"
12,≤ 6.31 µM,"CC(=O)N1c2ccc(-c3cnc(N)nc3)cc2[C@@H](NC(=O)OC(C)C)C[C@H]1C (racemic) [Example 50, 1-methylethyl[(cis)-1-acetyl-6-(2-amino-5-pyrimidinyl)-2-methyl-1,2,3,4-tetrahydro-4-quinolinyl]carbamate hydrochloride]"
13,≤ 6.31 µM,"CC(=O)N1c2ccc(-c3ccc(N4CCCCC4)nc3)cc2[C@@H](NC(=O)OC(C)C)C[C@H]1C (racemic) [Example 11, 1-methylethyl {(cis)-1-acetyl-2-methyl-6-[6-(1-piperidinyl)-3-pyridinyl]-1,2,3,4-tetrahydro-4-quinolinyl}carbamate hydrochloride]"
14,≤ 6.31 µM,"CC(=O)N1c2ccc(-c3ccc(CO)cc3)cc2[C@H](NC(=O)OC(C)C)C[C@@H]1C (relative stereo) [Example 15, 1-methylethyl {(cis)-1-acetyl-6-[4-(hydroxymethyl)phenyl]-2-methyl-1,2,3,4-tetrahydro-4-quinolinyl}carbamate]"
15,≤ 6.31 µM,"CC(=O)N1c2ccc(Br)cc2[C@@H](NC(=O)OC2CCC2)C[C@H]1C (racemic) [Example 33, cyclobutyl[(cis)-1-acetyl-6-bromo-2-methyl-1,2,3,4-tetrahydro-4-quinolinyl]carbamate]"

# System: IL-6
# Test: Measurement of LPS Induced IL-6 Secretion from Whole Blood
# Format: cell-based
# Conditions: 24 h, LPS 200 ng/ml, immunoassay, read-out: pIC50, LPS induced IL-6 secretion from whole blood (converted)
# Protocol: Measurement of LPS Induced IL-6 Secretion from Whole Blood
# as §1, with “IL-6.” for “TNFα.”
# Compounds to be tested are diluted to give a range of appropriate concentrations of which 1 ul of the diluted stocks is added to a 96 well plate. Following addition of whole blood (130 ul) the plates are incubated at 37 degrees (5% CO2) for 30 min before the addition of 10 ul of 2.8 ug/ml LPS, diluted in complete RPMI 1640 (final concentration=200 ng/ml), to give a total volume of 140 ul per well. After further incubation for 24 hours at 37 degrees, 140 ul of PBS are added to each well. The plates are sealed, shaken for 10 minutes and then centrifuged (2500 rpm×10 min). 100 ul of the supernatant are removed and IL-6 levels assayed by immunoassay (typically by MesoScale Discovery technology) either immediately or following storage at −20 degrees. Concentration response curves for each compound was generated from the data and an IC50 value was calculated.
row,IC50,SMILES
1,≤ 31.6 µM,"CC(=O)N1c2ccc(-c3nc(CN)no3)cc2[C@H](NC(=O)OC(C)C)C[C@@H]1C [Example 69, 1-Methylethyl {(2S,4R)-1-acetyl-6-[3-(aminomethyl)-1,2,4-oxadiazol-5-yl]-2-methyl-1,2,3,4-tetrahydro-4-quinolinyl}carbamate hydrochloride]"
2,≤ 31.6 µM,"CC(=O)N1c2ccc(-n3cnc(CNCCO)c3)cc2[C@@H](NC(=O)OC(C)C)C[C@H]1C (racemic) [Example 92, 1-Methylethyl[(cis)-1-acetyl-6-(4-{[(2-hydroxyethyl)amino]methyl}-1H-imidazol-1-yl)-2-methyl-1,2,3,4-tetrahydro-4-quinolinyl]carbamate]"
3,≤ 31.6 µM,"CC(=O)N1c2ccc(-c3ccccc3)cc2[C@H](NC(=O)OC(C)C)C[C@@H]1C [Example 94, 1-Methylethyl[(2S,4R)-1-acetyl-2-methyl-6-phenyl-1,2,3,4-tetrahydro-4-quinolinyl]carbamate]"
4,≤ 31.6 µM,"CC(=O)N1c2ccc(-c3c[nH]nn3)cc2[C@H](NC(=O)OC(C)C)C[C@@H]1C [Example 65, 1-Methylethyl[(2S,4R)-1-acetyl-2-methyl-6-(1H-1,2,3-triazol-4-yl)-1,2,3,4-tetrahydro-4-quinolinyl]carbamate]"
5,≤ 31.6 µM,"CC(=O)N1c2ccc(-c3noc(CCN)n3)cc2[C@H](NC(=O)OC(C)C)C[C@@H]1C [Example 77, 1-Methylethyl {(2S,4R)-1-acetyl-6-[5-(2-aminoethyl)-1,2,4-oxadiazol-3-yl]-2-methyl-1,2,3,4-tetrahydro-4-quinolinyl}carbamate hydrochloride]"
6,≤ 31.6 µM,"CC(=O)N1c2ccc(-c3ncc[nH]3)cc2[C@H](NC(=O)OC(C)C)C[C@@H]1C [Example 86, 1-Methylethyl[(2S,4R)-1-acetyl-6-(1H-imidazol-2-yl)-2-methyl-1,2,3,4-tetrahydro-4-quinolinyl]carbamate]"
7,≤ 31.6 µM,"CC(=O)N1c2ccc(-c3ccc(CCO)cc3)cc2[C@H](NC(=O)OC(C)C)C[C@@H]1C [Example 95, 1-Methylethyl {(2S,4R)-1-acetyl-6-[4-(2-hydroxyethyl)phenyl]-2-methyl-1,2,3,4-tetrahydro-4-quinolinyl}carbamate]"

# Source: patent US8697725B2, “Tetrahydroquinoline derivatives and their pharmaceutical use” (GlaxoSmithKline LLC, priority 2009, dated 2014)
